# Laboratory results reported in patent EP4534085A1, “COMPOUNDS FOR USE IN METHODS OF TREATING CANCER” (Scorpion Therapeutics, Inc., priority 2023, dated 2025).
# Where two headings read alike, the source gives them in different places.
# Legend:
# [1] = tested on: Ba/F3 lines expressing the noted EGFR constructs; assay: Ba/F3 proliferation inhibition (CellTiterGlo, 72 hr assay); format: cell-based
# human NSCLC cell lines = assay: Human cancer cell line proliferation inhibition (CellTiterGlo); format: cell-based
# pEGFR = assay: PC-9 (ex19del) PK/PD study, pEGFR pharmacodynamic readout; format: in vivo; conditions: 15 mg/kg single dose, over a 12-hour BID dosing window
# [2] = Caco-2 in vitro permeability (efflux ratio); format: in vitro ADME; conditions: human, read-out: CAco-2 ER
# MDR1 = target: T1, MDR1 (Homo sapiens, UniProt P08183); assay: MDCK-MDR1 efflux; format: in vitro ADME; conditions: dog, read-out: MDCK-MDR1 ER
# T1 construct: expressed in transfected cells; host or cells: MDCK
# T1 sequence (P08183 whole entry): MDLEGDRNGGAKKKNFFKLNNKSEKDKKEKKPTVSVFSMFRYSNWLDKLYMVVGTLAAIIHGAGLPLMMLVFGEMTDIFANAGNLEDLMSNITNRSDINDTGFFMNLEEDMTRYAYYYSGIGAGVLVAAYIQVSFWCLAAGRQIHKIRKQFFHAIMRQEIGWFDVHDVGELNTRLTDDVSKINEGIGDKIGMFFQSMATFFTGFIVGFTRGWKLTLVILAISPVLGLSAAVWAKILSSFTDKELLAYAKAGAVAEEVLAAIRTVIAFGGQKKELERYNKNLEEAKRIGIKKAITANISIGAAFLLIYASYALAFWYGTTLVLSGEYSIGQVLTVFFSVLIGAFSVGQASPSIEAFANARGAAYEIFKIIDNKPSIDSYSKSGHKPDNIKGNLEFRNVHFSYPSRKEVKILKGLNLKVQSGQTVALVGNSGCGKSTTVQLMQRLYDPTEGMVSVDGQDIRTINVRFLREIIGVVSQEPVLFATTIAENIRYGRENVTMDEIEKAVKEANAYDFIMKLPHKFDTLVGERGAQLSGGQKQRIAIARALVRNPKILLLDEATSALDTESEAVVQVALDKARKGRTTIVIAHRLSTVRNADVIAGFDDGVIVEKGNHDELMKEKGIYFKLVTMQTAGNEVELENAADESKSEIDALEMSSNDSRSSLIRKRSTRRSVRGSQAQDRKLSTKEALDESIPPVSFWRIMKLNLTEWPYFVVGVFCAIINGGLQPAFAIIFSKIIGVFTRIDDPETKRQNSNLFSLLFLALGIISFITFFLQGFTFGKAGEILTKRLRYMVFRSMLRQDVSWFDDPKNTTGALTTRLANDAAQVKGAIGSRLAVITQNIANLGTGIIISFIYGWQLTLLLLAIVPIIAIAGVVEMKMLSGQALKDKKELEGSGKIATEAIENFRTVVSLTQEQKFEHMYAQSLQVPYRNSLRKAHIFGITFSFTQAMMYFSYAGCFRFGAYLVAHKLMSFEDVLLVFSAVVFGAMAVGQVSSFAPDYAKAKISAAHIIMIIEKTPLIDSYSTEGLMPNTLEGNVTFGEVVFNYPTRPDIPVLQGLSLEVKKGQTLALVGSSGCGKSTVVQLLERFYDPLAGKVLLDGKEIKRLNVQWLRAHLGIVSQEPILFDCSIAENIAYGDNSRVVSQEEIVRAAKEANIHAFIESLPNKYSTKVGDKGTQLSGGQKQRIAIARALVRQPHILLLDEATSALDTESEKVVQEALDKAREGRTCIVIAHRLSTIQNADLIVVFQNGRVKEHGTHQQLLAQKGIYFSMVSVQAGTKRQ
# BCRP = target: T2, BCRP (Homo sapiens, UniProt Q9UNQ0); assay: MDCK-BCRP efflux; format: in vitro ADME; conditions: dog, read-out: MDCK-BCRP ER
# T2 construct: expressed in transfected cells; host or cells: MDCK
# T2 sequence (Q9UNQ0 1-655): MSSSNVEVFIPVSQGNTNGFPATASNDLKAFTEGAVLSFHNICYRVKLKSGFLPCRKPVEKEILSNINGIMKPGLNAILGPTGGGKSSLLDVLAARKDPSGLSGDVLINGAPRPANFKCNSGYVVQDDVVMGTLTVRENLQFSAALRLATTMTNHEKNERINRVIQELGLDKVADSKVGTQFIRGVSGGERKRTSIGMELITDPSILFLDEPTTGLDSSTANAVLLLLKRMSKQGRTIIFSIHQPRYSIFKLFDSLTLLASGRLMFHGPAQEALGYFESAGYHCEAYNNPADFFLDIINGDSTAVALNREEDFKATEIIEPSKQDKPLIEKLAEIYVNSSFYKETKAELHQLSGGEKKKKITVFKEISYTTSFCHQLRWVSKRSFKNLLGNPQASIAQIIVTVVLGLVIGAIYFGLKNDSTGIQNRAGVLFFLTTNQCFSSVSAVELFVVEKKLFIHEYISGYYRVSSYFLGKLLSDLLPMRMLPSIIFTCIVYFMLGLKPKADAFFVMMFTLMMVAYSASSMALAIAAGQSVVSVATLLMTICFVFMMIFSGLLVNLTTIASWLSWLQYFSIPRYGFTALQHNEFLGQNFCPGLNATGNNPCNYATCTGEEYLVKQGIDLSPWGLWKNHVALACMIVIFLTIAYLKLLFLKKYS
# [3] = Free CNS penetration (Kp,uu), rat brain slice method; format: in vivo, mice and rats; conditions: oral dosing; rat brain slice method for free fraction in brain; osimertinib run in parallel as benchmark
# Method: In order to characterise compound A in vitro and in vivo potency and selectivity for C797S-active double-mutant inhibitor vs. EGFR wild type, compound A was assessed in vitro and in vivo across a variety of engineered or endogenously occurring single (ex19del or L858R) or double (ex19del/C797S or L858R/C797S) mutant systems. In addition, the CNS exposure of compound A was also characterised using a gold-standard rat brain slice method to assess free exposure in brain tissue.
# Compound A is an EGFR inhibitor of formula I(a). Compound A was tested across a panel of in vitro biochemical, cell signalling, and proliferation assays for potency against EGFR L858R and ex19del single mutants and/or the corresponding C797S double mutants. Additionally, compound A was tested for in vivo activity in mice bearing human NSCLC cell line xenografts NCI-H3255 (L858R) and PC-9 (ex19del), and in a PC-9-derived ex19del/C797S double mutant knock-in xenograft. Free CNS penetration (Kp,uu) was determined in nontumour bearing mice and rats. Osimertinib and/or gefitinib were used as benchmark molecules across assays.
# [4] = format: in vivo
# [5] = tested on: pEGFR (phosphorylated EGFR, Tyr1068); assay: pEGFR (Tyr1068) inhibition, AlphaLISA; conditions: compared with gefitinib
# From the text: (§1) A PC-9 derivative with an ex19del/C797S in cis double mutation was engineered by CRISPR knock-in.
# NCI-H3255 (L858R) = assay: L858R human tumour xenograft, tumour growth inhibition; conditions: 5-15 mg/kg BID; L858R human tumour xenografts in mice
# From the text: as §1
# PC-9 (ex19del) = assay: ex19del human tumour xenograft, tumour growth inhibition
# From the text: as §1
# [6] = tested on: PC-9 derivative with an ex19del/C797S in cis double mutation; assay: C797S double mutant knock-in xenograft, tumour growth inhibition; conditions: 15 mg/kg BID, PC-9 ex19del/C797S xenograft
# From the text: as §1
smiles,measurement,setting,value
COCC[C@H]1CNC(=O)c2c1[nH]c(-c1ccnc(C)n1)c2Nc1cccc(Cl)c1OC [Compound A],"inhibition of L858R, ex19del, L858R/C797S and ex19del/C797S mutants in proliferation assays",[1]; engineered Ba/F3,high picomolar to low nanomolar
same,selectivity for all tested mutants relative to wild-type EGFR,[1]; engineered Ba/F3 cells,> 150 x
same,"inhibition of L858R, ex19del, L858R/C797S and ex19del/C797S mutants in proliferation assays",human NSCLC cell lines; human NSCLC cell lines,high picomolar to low nanomolar
same,selectivity for all tested mutants relative to wild-type EGFR,human NSCLC cell lines; human cancer cells,> 150 x
same,inhibition at 15 mg/kg,pEGFR,> 50%
same,efflux ratio at 1 µM,[2],1.76
same,efflux ratio at 1 µM,MDR1,0.95
same,efflux ratio at 1 µM,BCRP,1.17
same,"brain exposure Kp,uu",[3],comparable to Osimertinib
same,tolerability,[4]; 15 mg/kg BID or 50 mg/kg QD in mice,well tolerated
same,tolerability,"[4]; 5-15 mg/kg BID, mice",well tolerated
same,selectivity for all tested EGFR mutant cell lines relative to EGFR wild-type cell line NCI-H2073 (pEGFR inhibition IC50),[5],exceeded that of gefitinib
same,tumour growth inhibition (TGI),NCI-H3255 (L858R),≥ 90%
same,tumour growth inhibition (TGI),"PC-9 (ex19del); 5-15 mg/kg BID, ex19del human tumour xenografts in mice",≥ 90%
same,antitumour activity in EGFR single mutant xenografts,"PC-9 (ex19del); EGFR single mutant xenografts (ex19del or L858R), 15 mg/kg BID or 50 mg/kg QD in mice",regression
same,in vivo tumour growth inhibition in the presence of C797S,[6],retained in vivo tumour growth inhibition
same,in vivo tumour growth inhibition in the presence of C797S,[6]; listed as compound A,no drop-off in antitumour activity
